From patent US20220054640A1, “COMPOSITIONS AND METHODS FOR THE DELIVERY OF THERAPEUTIC AGENTS ACROSS THE ROUND WINDOW MEMBRANE” (Decibel Therapeutics, Inc., priority 2018, published 2022)
Where two headings read alike, the source gives them in different places. Ends that are not written are not given here. Peptide text beside a SMILES is read from it.

Legend:
[1] = test system: tight and adherens junctions; experiment: immunohistochemical staining of tight and adherens junctions after the in vitro permeability assay; format: cell-based; details: 3.5 hours of incubation at 37° C., NT-3 in vehicle or with 1% peptide
Description: (§1) To further characterize the effects of peptide (XVI), the in vitro permeability assay was used to evaluate administration of NT-3 in either vehicle or 1% of peptide (XVI), as depicted in FIG. 18. In this experiment, cultures were incubated at 37° C. and 50 μL samples were collected at various time points. After 3.5 hours of incubation, the top and bottom media were collected separately and the insert was fixed for immunohistochemical staining to evaluate tight and adherens junctions.

[2] = background statement, test not described; cited from earlier work
[3] = background statement; cited from earlier work
[4] = cochlear perilymph exposure upon intratympanic administration; details: NT-3 formulation with permeation enhancer (peptide 1%)
[5] = test system: guinea pig RWM; experiment: tight junction integrity of excised RWM in ex vivo culture; format: cell-based; details: 1% peptide TFA salt in DMEM, 1 hour
Text: The […] peptide is hypothesized to interfere with cellular tight junctions. To assess if this mechanism is relevant to the RWM, we excise the RWM from adult guinea pigs (Elm Hill Labs, Chelmsford, Mass.) and stain for a variety of adherens and tight junction proteins. To extract the guinea pig RWM, the temporal bone was removed from freshly sacrificed guinea pig tissue and placed in PBS. An incision was then made in the roof of the bulla to expose the cochlea, followed by trimming of the temporal bone, bulla, and middle ear bones to expose the RWM. The round window niche was then removed from the cochlea and then cultured in DMEM with and without 1% […].TFA for 1 hour. This tissue was then fixed in a 4% PFA solution for 30 minutes followed by wash with PBS (3 times, 5-minute incubations). […]

[6] = guinea pig, not told
[7] = test system: guinea pig RWM; experiment: RWM integrity after in vivo application; details: 21 days post trans-tympanic injection, 0.1% peptide HCl salt
Description: To assess the capacity for the RWM to recover after application of the […] peptide we record ABR thresholds with and without application of a 50 μL formulation including 0.1% […].HCL to the guinea pig RWM via trans-tympanic injection. […] Post-injection (21 days), the guinea pigs in both the […] exposed and control groups were sacrificed, and the temporal bone was removed as described in Example 5, section (a).

[8] = ABR/hearing testing; format: in vivo, guinea pig
Description: Prior to ABR recording, the tympanic membrane was inspected for otitis media using a surgical microscope. Animals with otitis media were excluded from the analysis. A TDT RZ6 system was used to record the auditory brainstem response (ABR). Animals were anaesthetized with zoletil (20 mg/kg, I.M.) and placed in a soundproof chamber. Three stainless needle recording electrodes were inserted just under the skin and connected to the appropriate input on the PA4LI low impedance headstage: Channel 1: Ipsilateral ear (same side as stimulus delivery); Reference: contralateral ear; Ground: Vertex (base of skull). A computer-controlled TDT RZ6 System was used to generate the auditory pure tone and power amplified before fed to a closed-field speaker to deliver sound stimuli. The same pure tone stimuli were repeated 512 times, the sound pressure levels were increased in a step of 10 dB SPL (5 dB around threshold) from 20 dB SPL to 90 dB SPL after every 512 repeated trials. The lowest sound level which induced a brainstem response was regarded as the threshold. The hearing thresholds were measured at 4, 24, and 32 kHz. ABR recording was performed before surgery or dosing and on the 7th and 14th day after the formulation dosing. The ABR was recorded first from the left ear and then from the right ear.

[9] = test system: round window membrane; experiment: in vitro permeability assay (apparent permeability, flux); format: in vitro ADME; details: NT-3 incubated with 1% peptide; for NT-3 apparent permeability (Papp) compared to control: FIG. 22
Description: To this end, an in vitro permeability assay was designed to test the apparent permeability of NT-3 against that of other compounds, the experimental design of which is shown in FIG. 1. After the initial formation of tight junctions, which was evaluated using transepithelial electrical resistance (TEER), 100 μL artificial perilymph (AP+) with API was added to the insert, and 500 μL AP+ was added to the bath. Cultures were incubated at 37° C. and 20 μL samples were collected at various time points.
as §1

[10] = listed as the peptide represented by formula (XVI)

Compound: neurotrophin-3 [NT-3]
- cell junction appearance (immunohistochemical staining) [1]: adherens junctions appeared normal
- EC50 [2]: less than 20 ng/ml
- pI [3]: 9.5

Compound: CC1(C)[C@@H](O[C@H]2O[C@H](C(=O)[O-])[C@@H](O)[C@H](O)[C@H]2O[C@@H]2O[C@H](C(=O)[O-])[C@@H](O)[C@H](O)[C@H]2O)CC[C@]2(C)[C@H]3C(=O)C=C4[C@@H]5C[C@@](C)(C(=O)O)CC[C@]5(C)CC[C@@]4(C)[C@]3(C)CC[C@@H]12.[K+].[K+] [dipotassium glycyrrhizinate]
- effect of permeation enhancer on cochlear NT-3 exposure / NT-3 delivery across the round window membrane [4]: incapable of substantially improving NT-3 delivery across the round window membrane

Compound: KLALKLALKALKLAALKLA.TFA (also: TFA salt)
- junction protein structure in RWM [5]: disrupts occludin, ZO-1, and alpha-catenin, but not actin (as imaged via phalloidin), or beta-catenin structure

Compound: OCc1ccccc1 [benzyl alcohol, reference compound]
- effect of permeation enhancer on cochlear NT-3 exposure / NT-3 delivery across the round window membrane [6]: incapable of substantially improving NT-3 delivery across the round window membrane

Compound: CC(C)C[C@H](NC(=O)[C@H](C)NC(=O)[C@H](CC(C)C)NC(=O)[C@H](CCCCN)NC(=O)[C@H](CC(C)C)NC(=O)[C@H](C)NC(=O)[C@H](CC(C)C)NC(=O)[C@@H](N)CCCCN)C(=O)N[C@@H](CCCCN)C(=O)N[C@@H](C)C(=O)N[C@@H](CC(C)C)C(=O)N[C@@H](CCCCN)C(=O)N[C@@H](CC(C)C)C(=O)N[C@@H](C)C(=O)N[C@@H](C)C(=O)N[C@@H](CC(C)C)C(=O)N[C@@H](CCCCN)C(=O)N[C@@H](CC(C)C)C(=O)N[C@@H](C)C(=O)O (H-KLALKLALKALKLAALKLA-OH; N-terminus and C-terminus assumed)
- tight junction proteins (actin, ZO-1, alpha-catenin) in RWM [7]: intact
- ABR hearing test, change relative to Day 0 ([8]; 1 μL of 1% (w/v) peptide HCl salt in Poloxamer 407 (20% w/v), His buffer (pH6), Day 14): no change relative to Day 0
- ABR threshold shift ([8]; 50 μL formulation including 0.1% peptide HCl salt, trans-tympanic, 7 and 14 days): no noticeable threshold shift

Compound: CC(=O)NC(CCCCN)C(=O)NC(CC(C)C)C(=O)NC(C)C(=O)NC(CC(C)C)C(=O)NC(CCCCN)C(=O)NC(CC(C)C)C(=O)NC(C)C(=O)NC(CC(C)C)C(=O)NC(CCCCN)C(=O)NC(C)C(=O)NC(CC(C)C)C(=O)NC(CCCCN)C(=O)NC(CC(C)C)C(=O)NC(C)C(=O)NC(C)C(=O)NC(CC(C)C)C(=O)NC(CCCCN)C(=O)NC(CC(C)C)C(=O)NC(C)C(N)=O (centres unmarked) [peptide (XVI)] (Ac-KLALKLALKALKLAALKLA-NH2; configuration not given here)
- NT-3 flux compared to control ([9]; FIG. 21): greater flux
- NT-3 apparent permeability (Papp) compared to control [9]: greater
- NT-3 apparent permeability (Papp) compared to control [9, 10]: increased NT-3 permeability
- cell junction appearance (immunohistochemical staining) [1]: gaps could be observed between cells
- cell junction appearance (immunohistochemical staining) [1, 10]: gaps were observed between cells
